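A five-concentration, 48-hour dose response in 96-well plates underlies each endpoint, interpolated linearly between surrounding concentrations. Abbreviation: GI50, concentration required for 50% inhibition of growth.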 Activity calls are given as the source filed them. No stated cut-off is given here; in the data, active = GI50 up to about 1.1 µM and inactive = higher.
Tests used:
Assay in all cases: NCI-60 cell line screen, 48 h
SF-268 = tested on: SF-268
SW-620 = tested on: SW-620
RPMI-8226 = tested on: RPMI-8226
PC-3 = tested on: PC-3
SNB-75 = tested on: SNB-75
OVCAR-5 = tested on: OVCAR-5
COLO 205 = tested on: COLO 205
M14 = tested on: M14
MDA-MB-231 = tested on: MDA-MB-231
A549 = tested on: A549
LOX IMVI = tested on: LOX IMVI
786-0 = tested on: 786-0
NCI/ADR-RES = tested on: NCI/ADR-RES
UO-31 = tested on: UO-31
MDA-N = tested on: MDA-N
SF-295 = tested on: SF-295
BT-549 = tested on: BT-549
SR = tested on: SR
K562 = tested on: K562
CAKI-1 = tested on: CAKI-1
OVCAR-4 = tested on: OVCAR-4
SNB-19 = tested on: SNB-19
EKVX = tested on: EKVX
HOP-92 = tested on: HOP-92
OVCAR-8 = tested on: OVCAR-8
HL-60 = tested on: HL-60
UACC-257 = tested on: UACC-257
KM12 = tested on: KM12
MCF7 = tested on: MCF7
NCI-H460 = tested on: NCI-H460
TK-10 = tested on: TK-10
OVCAR-3 = tested on: OVCAR-3
T47D = tested on: T47D
HT-29 = tested on: HT-29
SK-OV-3 = tested on: SK-OV-3
DU-145 = tested on: DU-145
U-251 = tested on: U-251
SN12C = tested on: SN12C
SF-539 = tested on: SF-539
UACC-62 = tested on: UACC-62
Hs-578T = tested on: Hs-578T
HCT-116 = tested on: HCT-116
IGROV-1 = tested on: IGROV-1
HCT-15 = tested on: HCT-15
SK-MEL-28 = tested on: SK-MEL-28
CCRF-CEM = tested on: CCRF-CEM
HOP-62 = tested on: HOP-62
MDA-MB-435 = tested on: MDA-MB-435
ACHN = tested on: ACHN
NCI-H23 = tested on: NCI-H23
RXF 393 = tested on: RXF 393
NCI-H226 = tested on: NCI-H226
MOLT-4 = tested on: MOLT-4
A498 = tested on: A498
SK-MEL-2 = tested on: SK-MEL-2
HCC 2998 = tested on: HCC 2998
SK-MEL-5 = tested on: SK-MEL-5
Malme-3M = tested on: Malme-3M
NCI-H522 = tested on: NCI-H522

`N#Cc1c(NCCc2ccc(F)cc2)c2ccccc2n2c1nc1ccccc12` was tested, and the GI50 (SF-268) was 7.41 µM (inactive), the GI50 (SW-620) was 75 µM (inactive) and the GI50 (RPMI-8226) was 46.8 µM (inactive). For the same compound, the GI50 (PC-3) was 13 µM (inactive), the GI50 (SNB-75) was 6.32 µM (inactive) and the GI50 (OVCAR-5) was 41.6 µM (inactive). The GI50 (COLO 205) was 71.6 µM (inactive), the GI50 (M14) was 42 µM (inactive) and the GI50 (MDA-MB-231) was 10 µM (inactive). For the same compound, the GI50 (A549) was 33.7 µM (inactive), the GI50 (LOX IMVI) was 14.1 µM (inactive) and the GI50 (786-0) was 4.46 µM (inactive). The GI50 (NCI/ADR-RES) was 12.3 µM (inactive), the GI50 (UO-31) was 13.7 µM (inactive) and the GI50 (MDA-N) was 21.3 µM (inactive). For the same compound, the GI50 (SF-295) was 10.7 µM (inactive), the GI50 (BT-549) was 21.2 µM (inactive) and the GI50 (SR) was > 100 µM (inactive). The GI50 (K562) was > 100 µM (inactive), the GI50 (CAKI-1) was 9.84 µM (inactive) and the GI50 (OVCAR-4) was 2.45 µM (inactive). For the same compound, the GI50 (SNB-19) was 14 µM (inactive), the GI50 (EKVX) was 10.2 µM (inactive) and the GI50 (HOP-92) was 3.55 µM (inactive). The GI50 (OVCAR-8) was 5.68 µM (inactive), the GI50 (HL-60) was > 100 µM (inactive) and the GI50 (UACC-257) was 40.4 µM (inactive). For the same compound, the GI50 (KM12) was 23.2 µM (inactive), the GI50 (MCF7) was 6.34 µM (inactive) and the GI50 (NCI-H460) was 16.5 µM (inactive). For the same compound, the GI50 (TK-10) was 12.5 µM (inactive), the GI50 (OVCAR-3) was 13.9 µM (inactive) and the GI50 (T47D) was 22.4 µM (inactive). For the same compound, the GI50 (HT-29) was 14.9 µM (inactive), the GI50 (SK-OV-3) was 20.1 µM (inactive) and the GI50 (DU-145) was 19.6 µM (inactive). For the same compound, the GI50 (U-251) was 11.3 µM (inactive), the GI50 (SN12C) was 15.1 µM (inactive) and the GI50 (SF-539) was 9.27 µM (inactive). For the same compound, the GI50 (UACC-62) was 7.6 µM (inactive), the GI50 (Hs-578T) was 4.33 µM (inactive) and the GI50 (HCT-116) was 19 µM (inactive). For the same compound, the GI50 (IGROV-1) was 13.4 µM (inactive), the GI50 (HCT-15) was 28.4 µM and the GI50 (SK-MEL-28) was 40.6 µM (inactive). The GI50 (CCRF-CEM) was > 100 µM (inactive), the GI50 (HOP-62) was 5.27 µM (inactive) and the GI50 (MDA-MB-435) was 73.5 µM (inactive). For the same compound, the GI50 (ACHN) was 9.18 µM (inactive), the GI50 (NCI-H23) was 13.1 µM (inactive) and the GI50 (RXF 393) was 10.7 µM (inactive). The GI50 (NCI-H226) was 16.7 µM (inactive), the GI50 (MOLT-4) was > 100 µM (inactive) and the GI50 (A498) was 21 µM (inactive). The GI50 (SK-MEL-2) was 36.9 µM (inactive) and the GI50 (HCC 2998) was 40.3 µM (inactive).
With `O=C(O)CCc1nc(-c2ccccc2)c(-c2ccccc2)o1` [OXAPROZIN] the GI50 (SW-620) was > 100 µM (inactive), the GI50 (RPMI-8226) was 74.8 µM (inactive) and the GI50 (PC-3) was > 100 µM (inactive). For the same compound, the GI50 (SK-MEL-5) was > 100 µM (inactive), the GI50 (SNB-75) was > 100 µM (inactive) and the GI50 (OVCAR-5) was > 100 µM (inactive). The GI50 (COLO 205) was > 100 µM (inactive), the GI50 (M14) was > 100 µM (inactive) and the GI50 (MDA-MB-231) was > 100 µM (inactive). For the same compound, the GI50 (A549) was > 100 µM (inactive), the GI50 (Malme-3M) was > 100 µM (inactive) and the GI50 (LOX IMVI) was > 100 µM (inactive). The GI50 (786-0) was > 100 µM (inactive), the GI50 (NCI/ADR-RES) was > 100 µM (inactive) and the GI50 (MDA-N) was > 100 µM (inactive). The GI50 (SF-295) was > 100 µM (inactive), the GI50 (BT-549) was > 100 µM (inactive) and the GI50 (SR) was > 100 µM (inactive). The GI50 (K562) was > 100 µM (inactive), the GI50 (CAKI-1) was > 100 µM (inactive) and the GI50 (OVCAR-4) was > 100 µM (inactive). For the same compound, the GI50 (SNB-19) was > 100 µM (inactive), the GI50 (EKVX) was > 100 µM (inactive) and the GI50 (HOP-92) was > 100 µM (inactive). The GI50 (OVCAR-8) was > 100 µM (inactive), the GI50 (HL-60) was > 100 µM (inactive) and the GI50 (UACC-257) was > 100 µM (inactive). For the same compound, the GI50 (KM12) was > 100 µM (inactive), the GI50 (MCF7) was > 100 µM (inactive) and the GI50 (NCI-H460) was > 100 µM (inactive). The GI50 (TK-10) was > 100 µM (inactive), the GI50 (OVCAR-3) was > 100 µM (inactive) and the GI50 (T47D) was 74.5 µM (inactive). The GI50 (HT-29) was > 100 µM (inactive), the GI50 (SK-OV-3) was > 100 µM (inactive) and the GI50 (DU-145) was > 100 µM (inactive). The GI50 (U-251) was > 100 µM (inactive), the GI50 (SN12C) was > 100 µM (inactive) and the GI50 (SF-539) was > 100 µM (inactive). For the same compound, the GI50 (UACC-62) was > 100 µM (inactive), the GI50 (Hs-578T) was > 100 µM (inactive) and the GI50 (HCT-116) was > 100 µM (inactive). For the same compound, the GI50 (IGROV-1) was > 100 µM (inactive), the GI50 (HCT-15) was > 100 µM and the GI50 (SK-MEL-28) was > 100 µM (inactive). The GI50 (CCRF-CEM) was > 100 µM (inactive), the GI50 (HOP-62) was > 100 µM (inactive) and the GI50 (MDA-MB-435) was > 100 µM (inactive). The GI50 (ACHN) was > 100 µM (inactive), the GI50 (NCI-H23) was > 100 µM (inactive) and the GI50 (RXF 393) was > 100 µM (inactive). For the same compound, the GI50 (NCI-H226) was > 100 µM (inactive), the GI50 (MOLT-4) was 84.1 µM (inactive) and the GI50 (NCI-H522) was > 100 µM (inactive). For the same compound, the GI50 (A498) was > 100 µM (inactive) and the GI50 (SK-MEL-2) was > 100 µM (inactive).
For `CCCC1C2=C(C(=O)OC2=O)C2C(CC)CC3=C(C(=O)OC3=O)C12` (stereo unspecified), the GI50 (SF-268) was > 100 µM (inactive), the GI50 (SW-620) was > 100 µM (inactive) and the GI50 (RPMI-8226) was > 100 µM (inactive). The GI50 (PC-3) was > 100 µM (inactive), the GI50 (SK-MEL-5) was > 100 µM (inactive) and the GI50 (SNB-75) was > 100 µM (inactive). For the same compound, the GI50 (OVCAR-5) was > 100 µM (inactive), the GI50 (COLO 205) was > 100 µM (inactive) and the GI50 (M14) was > 100 µM (inactive). The GI50 (MDA-MB-231) was > 100 µM (inactive), the GI50 (A549) was > 100 µM (inactive) and the GI50 (LOX IMVI) was > 100 µM (inactive). The GI50 (786-0) was > 100 µM (inactive), the GI50 (NCI/ADR-RES) was > 100 µM (inactive) and the GI50 (UO-31) was > 100 µM (inactive). The GI50 (MDA-N) was > 100 µM (inactive), the GI50 (SF-295) was > 100 µM (inactive) and the GI50 (BT-549) was > 100 µM (inactive). The GI50 (SR) was > 100 µM (inactive), the GI50 (K562) was > 100 µM (inactive) and the GI50 (CAKI-1) was > 100 µM (inactive). The GI50 (SNB-19) was > 100 µM (inactive), the GI50 (EKVX) was > 100 µM (inactive) and the GI50 (HOP-92) was > 100 µM (inactive). For the same compound, the GI50 (OVCAR-8) was > 100 µM (inactive), the GI50 (HL-60) was > 100 µM (inactive) and the GI50 (UACC-257) was > 100 µM (inactive). The GI50 (KM12) was > 100 µM (inactive), the GI50 (MCF7) was > 100 µM (inactive) and the GI50 (NCI-H460) was > 100 µM (inactive). The GI50 (TK-10) was > 100 µM (inactive), the GI50 (OVCAR-3) was > 100 µM (inactive) and the GI50 (T47D) was > 100 µM (inactive). The GI50 (HT-29) was > 100 µM (inactive), the GI50 (SK-OV-3) was > 100 µM (inactive) and the GI50 (DU-145) was > 100 µM (inactive). The GI50 (U-251) was > 100 µM (inactive), the GI50 (SN12C) was > 100 µM (inactive) and the GI50 (SF-539) was > 100 µM (inactive). The GI50 (UACC-62) was > 100 µM (inactive), the GI50 (Hs-578T) was 18.4 µM (inactive) and the GI50 (HCT-116) was > 100 µM (inactive). The GI50 (IGROV-1) was > 100 µM (inactive), the GI50 (HCT-15) was > 100 µM and the GI50 (SK-MEL-28) was > 100 µM (inactive). The GI50 (CCRF-CEM) was > 100 µM (inactive), the GI50 (HOP-62) was > 100 µM (inactive) and the GI50 (MDA-MB-435) was > 100 µM (inactive). The GI50 (ACHN) was > 100 µM (inactive), the GI50 (NCI-H23) was > 100 µM (inactive) and the GI50 (NCI-H226) was > 100 µM (inactive). The GI50 (MOLT-4) was > 100 µM (inactive), the GI50 (A498) was > 100 µM (inactive) and the GI50 (SK-MEL-2) was > 100 µM (inactive).

From ChEMBL document CHEMBL1201862, “PubChem BioAssay data set” (2004)
